From patent US20230017786A1, “DEXTR[…] A DISEASE-MODIFYING TREATMENT FOR NEUROPSYCHIATRIC DISORDERS AND DISEASES” (priority 2020, published 2023)
“And” between values parts separate entries of the source, which are not always exact repeats. Identical values can stand only once. Counter-ions that a name gives are not always drawn.

Tests used:
[1] = target: T1, human NMDA receptor GluN1-GluN2D (Homo sapiens, UniProt O15399+Q05586); test: FLIPR calcium assay, test item effect on L-glutamate CRC, GluN1-GluN2D-CHO; assay type: cell-based
T1 construct: expressed in transfected cells; host or cells: CHO

[2] = tested on: NMDA receptors of cultured rat cortical neurons; conditions: Mealing et al., 1999; cited from earlier work
[3] = tested on: diheteromeric human recombinant NMDAR containing GluN1 plus GluN2A, GluN2B, GluN2C or GluN2D; test: FLIPR calcium assay, statements for all four NMDAR subtypes together; assay type: cell-based; conditions: 6 test item concentrations
[4] = target: T2, human NMDA receptor GluN1-GluN2A (Homo sapiens, UniProt Q05586+Q12879); test: FLIPR calcium assay, test item effect on L-glutamate CRC, GluN1-GluN2A-CHO; assay type: cell-based
T2 construct: expressed in transfected cells; host or cells: CHO

[5] = target: T3, human GluN1-GluN2C NMDA receptor (Homo sapiens, UniProt Q05586+Q14957); test: Manual patch clamp trapping assay, hGluN1/hGluN2C-CHO cells; conditions: test item 1 μM, hydrochloride
Description: Manual patch clamp recordings occurred at −70 mV.
hGluN1/hGluN2C-CHO cells grown on poly-D-lysine coated glass coverslips were studied by manual patch clamp whole cell recording.
(§1) Recordings occurred at −70 mV fixed voltage equal to holding potential.

[6] = target: T4, human NMDA receptor GluN1-GluN2C (Homo sapiens, UniProt Q05586+Q14957); test: FLIPR calcium assay, test item effect on L-glutamate CRC, GluN1-GluN2C-CHO; assay type: cell-based
T4 construct: expressed in transfected cells; host or cells: CHO

[7] = target: T5, human NMDA receptor GluN1-GluN2B (Homo sapiens, UniProt Q05586+Q13224); test: cell-based; assay type: cell-based
T5 construct: expressed in transfected cells; host or cells: CHO

[8] = target: T3, human GluN1-GluN2C NMDA receptor; test: Manual patch clamp on-/off-rate assay, hGluN1/hGluN2C-CHO cells; conditions: for % Current (mean ± SEM): 10/10 μM L-glutamate/glycine induced current, hGluN1/hGluN2C-CHO; for Tau-off: continuous 10/10 μM L-glutamate/glycine; for I2 (% current): current after 50 seconds removal of test item; for Tau-on: 10/10 μM L-glutamate/glycine; for % block of 10/10 μM L-glutamate/glycine induced current: −70 mV, no Mg2+
Protocol: Manual patch clamp recordings occurred at −70 mV. […] Tau-on and tau-off were estimated by curve fitting to first order exponential equations.
Test items were evaluated using a manual patch clamp whole-cell recording methodology, using HEKA Elektronik Patchmaster system, coupled to BioLogic RSC-160 perfusion device (BioLogic, Seyssinet-Pariset, France).
hGluN1/hGluN2C-CHO cells grown on poly-D-lysine coated glass coverslips were studied by manual patch clamp whole cell recording. Extracellular and intracellular solutions for patch clamp recording had following composition:
as §1
Test item on-/off-rates were measured by curve fitting the development of their induced current block, or relief from it.
At least n=10 independent cells were analysed. […] Time constant of onset (tau-on, seconds) and offset (tau-off, seconds) of test item inhibition of glutamate induced current were calculated using first order exponential equations as shown below:
I(t)=I1+(I2−I1)×(1−e^−t/τoff)

[9] = highest affinity for a NMDAR subtype = 100%
[10] = operational analysis for allosteric modulators
[11] = 10 μM test item, offset fitting

T1 sequence (O15399 28-1336, other chains not shown): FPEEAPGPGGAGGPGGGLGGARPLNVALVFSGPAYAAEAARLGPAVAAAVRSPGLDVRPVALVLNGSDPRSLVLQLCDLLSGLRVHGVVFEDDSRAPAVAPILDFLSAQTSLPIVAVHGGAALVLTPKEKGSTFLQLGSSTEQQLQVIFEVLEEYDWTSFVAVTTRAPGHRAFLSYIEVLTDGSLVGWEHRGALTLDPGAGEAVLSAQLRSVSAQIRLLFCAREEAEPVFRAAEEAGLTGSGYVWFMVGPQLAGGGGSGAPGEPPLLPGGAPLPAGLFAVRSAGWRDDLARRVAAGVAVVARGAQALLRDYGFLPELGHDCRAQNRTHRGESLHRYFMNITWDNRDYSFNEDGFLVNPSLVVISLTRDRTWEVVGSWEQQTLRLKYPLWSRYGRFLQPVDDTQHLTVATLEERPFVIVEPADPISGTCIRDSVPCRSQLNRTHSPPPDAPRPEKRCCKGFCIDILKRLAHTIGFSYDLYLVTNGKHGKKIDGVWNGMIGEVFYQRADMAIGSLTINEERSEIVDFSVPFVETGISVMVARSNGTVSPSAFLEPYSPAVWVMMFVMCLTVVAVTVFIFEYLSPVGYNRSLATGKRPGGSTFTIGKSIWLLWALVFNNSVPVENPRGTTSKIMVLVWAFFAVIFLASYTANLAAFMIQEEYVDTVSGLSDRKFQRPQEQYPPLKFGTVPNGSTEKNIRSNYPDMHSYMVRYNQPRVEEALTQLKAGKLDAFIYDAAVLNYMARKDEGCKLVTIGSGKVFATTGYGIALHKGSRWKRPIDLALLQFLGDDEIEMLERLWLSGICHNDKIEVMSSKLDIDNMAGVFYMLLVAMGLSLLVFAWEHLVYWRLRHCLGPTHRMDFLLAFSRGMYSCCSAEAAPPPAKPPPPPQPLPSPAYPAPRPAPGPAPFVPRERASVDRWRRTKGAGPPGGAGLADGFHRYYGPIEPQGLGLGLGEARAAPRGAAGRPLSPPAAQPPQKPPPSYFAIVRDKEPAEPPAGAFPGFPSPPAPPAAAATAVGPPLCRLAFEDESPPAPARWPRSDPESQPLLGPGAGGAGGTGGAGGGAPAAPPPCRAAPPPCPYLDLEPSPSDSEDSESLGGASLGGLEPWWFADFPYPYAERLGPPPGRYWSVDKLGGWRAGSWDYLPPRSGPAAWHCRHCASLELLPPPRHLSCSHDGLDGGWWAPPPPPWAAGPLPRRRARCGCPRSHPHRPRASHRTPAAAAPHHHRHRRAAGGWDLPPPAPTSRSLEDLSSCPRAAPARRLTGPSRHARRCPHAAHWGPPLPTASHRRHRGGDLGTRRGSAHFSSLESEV
T4 sequence (Q14957 20-1233, other chains not shown): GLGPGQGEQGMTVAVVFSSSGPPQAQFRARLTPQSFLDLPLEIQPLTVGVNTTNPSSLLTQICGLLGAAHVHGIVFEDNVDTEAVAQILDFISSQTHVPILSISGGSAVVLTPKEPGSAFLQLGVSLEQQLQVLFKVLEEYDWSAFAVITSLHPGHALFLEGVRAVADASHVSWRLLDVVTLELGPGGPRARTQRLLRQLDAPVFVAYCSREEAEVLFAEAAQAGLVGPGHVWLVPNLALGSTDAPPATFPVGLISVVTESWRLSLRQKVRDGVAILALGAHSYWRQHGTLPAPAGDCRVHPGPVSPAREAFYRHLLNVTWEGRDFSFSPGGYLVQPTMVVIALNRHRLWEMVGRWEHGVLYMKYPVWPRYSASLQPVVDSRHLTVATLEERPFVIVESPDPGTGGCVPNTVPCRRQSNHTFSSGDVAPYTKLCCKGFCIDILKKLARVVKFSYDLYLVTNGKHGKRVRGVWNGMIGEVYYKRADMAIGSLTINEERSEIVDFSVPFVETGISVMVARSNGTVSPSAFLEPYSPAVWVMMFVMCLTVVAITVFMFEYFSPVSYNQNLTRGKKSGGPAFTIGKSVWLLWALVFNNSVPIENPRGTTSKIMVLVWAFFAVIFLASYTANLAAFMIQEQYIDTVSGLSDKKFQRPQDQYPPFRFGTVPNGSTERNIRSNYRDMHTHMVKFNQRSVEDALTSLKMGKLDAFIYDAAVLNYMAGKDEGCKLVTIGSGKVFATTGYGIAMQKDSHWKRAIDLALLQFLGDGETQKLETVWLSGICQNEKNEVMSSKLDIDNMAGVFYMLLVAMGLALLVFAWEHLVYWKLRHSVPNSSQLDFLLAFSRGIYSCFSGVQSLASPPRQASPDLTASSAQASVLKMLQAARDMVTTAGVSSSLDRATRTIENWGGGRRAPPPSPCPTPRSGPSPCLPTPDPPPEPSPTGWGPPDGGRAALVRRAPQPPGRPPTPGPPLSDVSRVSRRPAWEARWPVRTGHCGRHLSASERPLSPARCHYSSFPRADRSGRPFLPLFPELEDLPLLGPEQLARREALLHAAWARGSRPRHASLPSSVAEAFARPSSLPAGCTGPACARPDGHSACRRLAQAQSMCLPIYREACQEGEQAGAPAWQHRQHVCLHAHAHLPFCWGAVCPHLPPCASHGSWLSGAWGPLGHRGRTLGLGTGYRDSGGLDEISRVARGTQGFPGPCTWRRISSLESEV
T3 sequence (Q14957 20-1233, other chains not shown): as above
T2 sequence (Q12879 23-1464, other chains not shown): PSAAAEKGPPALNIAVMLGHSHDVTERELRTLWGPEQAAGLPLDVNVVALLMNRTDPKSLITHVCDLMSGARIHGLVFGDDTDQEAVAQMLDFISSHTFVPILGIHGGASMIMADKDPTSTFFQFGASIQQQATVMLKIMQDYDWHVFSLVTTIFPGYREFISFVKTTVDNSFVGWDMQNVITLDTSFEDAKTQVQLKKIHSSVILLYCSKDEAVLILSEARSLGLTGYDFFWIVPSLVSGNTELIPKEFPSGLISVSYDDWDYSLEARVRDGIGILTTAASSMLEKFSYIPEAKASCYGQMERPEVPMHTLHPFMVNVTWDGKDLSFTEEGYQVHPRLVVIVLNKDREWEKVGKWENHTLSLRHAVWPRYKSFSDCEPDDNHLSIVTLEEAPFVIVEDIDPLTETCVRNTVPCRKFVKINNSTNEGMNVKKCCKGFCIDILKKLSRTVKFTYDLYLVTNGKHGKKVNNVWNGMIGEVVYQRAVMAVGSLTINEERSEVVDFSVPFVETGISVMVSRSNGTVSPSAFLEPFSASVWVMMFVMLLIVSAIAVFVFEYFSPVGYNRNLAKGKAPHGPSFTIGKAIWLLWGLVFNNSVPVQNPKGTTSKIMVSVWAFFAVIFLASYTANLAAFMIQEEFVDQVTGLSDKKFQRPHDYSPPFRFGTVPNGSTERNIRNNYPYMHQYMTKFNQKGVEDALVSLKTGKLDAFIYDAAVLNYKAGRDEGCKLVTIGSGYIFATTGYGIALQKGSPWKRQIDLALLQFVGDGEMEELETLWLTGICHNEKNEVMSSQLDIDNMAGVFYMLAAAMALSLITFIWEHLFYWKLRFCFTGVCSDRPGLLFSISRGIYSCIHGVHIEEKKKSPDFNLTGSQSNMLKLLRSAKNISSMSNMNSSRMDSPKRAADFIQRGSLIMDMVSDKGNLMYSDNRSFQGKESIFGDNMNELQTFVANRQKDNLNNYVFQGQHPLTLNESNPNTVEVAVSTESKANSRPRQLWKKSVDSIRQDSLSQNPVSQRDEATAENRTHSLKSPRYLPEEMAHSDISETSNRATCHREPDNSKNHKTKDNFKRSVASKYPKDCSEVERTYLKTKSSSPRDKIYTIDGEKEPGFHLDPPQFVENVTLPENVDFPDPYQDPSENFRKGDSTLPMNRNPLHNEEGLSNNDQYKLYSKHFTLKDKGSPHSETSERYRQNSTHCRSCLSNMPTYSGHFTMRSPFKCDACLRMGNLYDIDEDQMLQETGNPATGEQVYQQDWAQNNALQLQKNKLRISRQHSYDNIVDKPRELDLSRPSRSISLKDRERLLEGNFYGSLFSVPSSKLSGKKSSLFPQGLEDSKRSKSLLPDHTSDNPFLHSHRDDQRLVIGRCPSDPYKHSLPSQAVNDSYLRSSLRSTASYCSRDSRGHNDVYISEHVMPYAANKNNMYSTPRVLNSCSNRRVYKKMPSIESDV

## CNC1(c2ccccc2Cl)CCCCC1=O (racemic) [(±)-Ketamine, (±)-ketamine hydrochloride]
[1]
  Kb: 1400 nM
[1]; [9]
  % affinity ratio: 33%
[1]; [10]
  α, estimated cooperativity term: 0.15
[1]; with test item 49 nM
  L-glutamate CRC HillSlope: 1.6
  L-glutamate CRC LogEC50: −7.4
[1]; with test item 195 nM
  L-glutamate CRC HillSlope: 1.5
  L-glutamate CRC LogEC50: −7.3
[1]; with test item 781 nM
  L-glutamate CRC HillSlope: 1.4
  L-glutamate CRC LogEC50: −7.2
[1]; with test item 3.1 μM
  L-glutamate CRC HillSlope: 1.8
  L-glutamate CRC LogEC50: −7.1
[1]; with test item 12.5 μM
  L-glutamate CRC HillSlope: 1.6
  L-glutamate CRC LogEC50: −6.9
[1]; with test item 50 μM
  L-glutamate CRC HillSlope: 2.0
  L-glutamate CRC LogEC50: −6.7
[2]
  trapping: 86.0%
[3]
  profile on L-glutamate CRC: insurmountable profile
[4]
  Kb: 4300 nM
[4]; [9]
  % affinity ratio: 11%
[4]; [10]
  α, estimated cooperativity term: 0.17
[4]; with test item 49 nM
  L-glutamate CRC HillSlope: 1.2
  L-glutamate CRC LogEC50: −6.5
[4]; with test item 195 nM
  L-glutamate CRC HillSlope: 1.2
  L-glutamate CRC LogEC50: −6.5
[4]; with test item 781 nM
  L-glutamate CRC HillSlope: 1.0
  L-glutamate CRC LogEC50: −6.4
[4]; with test item 3.1 μM
  L-glutamate CRC HillSlope: 1.1
  L-glutamate CRC LogEC50: −6.4
[4]; with test item 12.5 μM
  L-glutamate CRC HillSlope: 1.3
  L-glutamate CRC LogEC50: −6.4
[4]; with test item 50 μM
  L-glutamate CRC HillSlope: 1.9
  L-glutamate CRC LogEC50: −6.2
[5]
  Block trapped (BT), trapping: 86.7%
[5]; listed as (±)-ketamine
  Block (B) of 10/10 μM L-glutamate/glycine-evoked currents: 74.0%±1.2% and 74.0%
  Block trapped (BT), trapping: 86.7%±1.8% and 86.7%
  Residual block (BR): 64.1%±1.3% and 64.1%
[6]
  Kb: 460 nM
[6]; from the FLIPR study (Example 1)
  potency with respect to dextromethadone: ~10 fold
[6]; [9]
  % affinity ratio: 100%
[6]; [10]
  α, estimated cooperativity term: 0.13
[6]; with test item 49 nM
  L-glutamate CRC HillSlope: 1.5
  L-glutamate CRC LogEC50: −6.9
[6]; with test item 195 nM
  L-glutamate CRC HillSlope: 1.5
  L-glutamate CRC LogEC50: −6.8
[6]; with test item 781 nM
  L-glutamate CRC HillSlope: 1.3
  L-glutamate CRC LogEC50: −6.6
[6]; with test item 3.1 μM
  L-glutamate CRC HillSlope: 1.2
  L-glutamate CRC LogEC50: −6.6
[6]; with test item 12.5 μM
  L-glutamate CRC HillSlope: 2.0
  L-glutamate CRC LogEC50: −6.7
[6]; with test item 50 μM
  L-glutamate CRC HillSlope: 2.5
  L-glutamate CRC LogEC50: −6.4
[7]
  % affinity ratio: 42%
  Kb: 1100 nM
  α, estimated cooperativity term: 0.14
[7]; hydrochloride
  L-glutamate CRC HillSlope: 2.0 and 1.4 and 1.1 and 1.2
[8]; 0.3 μM test item
  % Current (mean ± SEM): 44.2 ± 3.0%
[8]; 1 μM test item
  % Current (mean ± SEM): 74.6 ± 2.2%
[8]; 1 μM test item, offset fitting
  I1 (% current): 28.5 % current
  Tau-off: 151.0 s
  I2 (% current): 95.5 % current
[8]; 1 μM test item, onset fitting
  Tau-on: 47.1 s
[8]; 1 μM test item, onset fitting, current after 30 seconds application of test item
  I1 (% current): 28.7 % current
[8]; 3 μM test item
  % Current (mean ± SEM): 89.7 ± 0.6%
[8]; [11]
  I1 (% current): 4.9 % current
  Tau-off: 163.2 s
  I2 (% current): 102.9 % current
[8]; 10 μM test item, onset fitting
  Tau-on: 9.9 s
[8]; 10 μM test item, onset fitting, current after 30 seconds application of test item
  I1 (% current): 3.6 % current
[8]; test item 0.3 μM, hydrochloride
  % block of 10/10 μM L-glutamate/glycine induced current: 44% and 44.2%±3.0% and 44.2%
[8]; test item 1 μM
  tau-off, mean of single trace fittings: 151.7 ± 6.3 s
  tau-on: 47.1 s
  tau-on, average of single trace fittings: 47.3 ± 1.4 s
[8]; test item 1 μM, hydrochloride
  tau-off: 151 s
  % block of 10/10 μM L-glutamate/glycine induced current: 74.6%±2.2% and 75% and 74.6%
[8]; test item 1 μM, listed as (±)-ketamine, hydrochloride
  tau-off: 151.0 s
[8]; test item 3 μM, hydrochloride
  % block of 10/10 μM L-glutamate/glycine induced current: 90% and 89.7%±0.6% and 89.7%
[8]; test item 10 μM
  tau-off: 163.2 s
  tau-on: 9.9 s
[8]; test item 10 μM, hydrochloride
  % block of 10/10 μM L-glutamate/glycine induced current: 97.2%±0.3% and 97% and 97.2%
